According to patent US5872281A, “Amino acid derivative having N,N-dialkylaminophenyl group” (Santen Pharmaceutical Co., Ltd., priority 1995, dated 1999):

Columns and labels:
[1] = molecular target: T1, LTA4 hydrolase (Cavia porcellus, UniProt P19602); assay: LTA4 hydrolase inhibition, LTB4 produced from LTA4 (guinea pig lung enzyme preparation), measured by HPLC; format: biochemical; settings: LTA4 63 μM; HEPES 50 mM, pH 7.8; enzyme preparation 0.4-0.6 mg protein; DTT 3 mM; 37° C., one minute; read-out: IC50 (concentration required to inhibit LTA4 hydrolase by 50%)
T1 construct: prepared by extracting roughly from guinea pig lung; from tissue; host or cells: guinea pig (Hartley) lung, 100,000×g supernatant, 40-70% ammonium sulfate fraction, dialyzed
T1 sequence (P19602 1-611): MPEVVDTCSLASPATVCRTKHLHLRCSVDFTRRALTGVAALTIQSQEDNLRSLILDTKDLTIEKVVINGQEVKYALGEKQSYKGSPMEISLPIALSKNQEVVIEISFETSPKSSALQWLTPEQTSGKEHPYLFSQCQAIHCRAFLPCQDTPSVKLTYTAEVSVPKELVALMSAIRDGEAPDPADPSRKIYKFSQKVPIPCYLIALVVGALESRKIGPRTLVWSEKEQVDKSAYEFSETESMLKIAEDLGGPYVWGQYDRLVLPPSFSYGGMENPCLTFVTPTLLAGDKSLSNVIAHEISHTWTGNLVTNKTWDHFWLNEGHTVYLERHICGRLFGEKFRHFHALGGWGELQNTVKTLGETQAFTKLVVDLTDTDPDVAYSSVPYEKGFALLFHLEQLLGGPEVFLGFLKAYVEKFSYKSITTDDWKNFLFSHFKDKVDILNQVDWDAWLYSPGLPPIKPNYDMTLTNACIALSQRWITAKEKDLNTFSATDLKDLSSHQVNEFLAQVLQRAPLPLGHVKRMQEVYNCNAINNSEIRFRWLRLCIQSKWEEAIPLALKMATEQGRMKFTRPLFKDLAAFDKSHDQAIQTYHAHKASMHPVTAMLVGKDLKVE
Procedure: Izumi et al. had reported a method of measuring LTA4 hydrolase activity by measuring an amount of LTB4 produced by an enzymatic reaction using LTA4 as a substrate (Biochem. Biophys. Res. Commun., 135, 139-145 (1986)). Effects of the present compounds on LTA4 hydrolase were examined according to the method described in the literature.
An enzyme preparation used in this pharmacological test was prepared by extracting roughly from guinea pig lung by the following method, according to the method of Izumi et al. (Biochem. Biophys. Res. Commun., 135, 139-145 (1986)) and the method of Evans et al. (Biochem. Biophys. Acta, 840, 43-50 (1985)).
Lungs were excised from Hartley guinea pigs (body weight: 330 g). The lungs were homogenized in phosphoric acid buffer (50 mM, pH 7.4, containing 1 mM ethylenediaminetetraacetic acid (EDTA) and 1 mM dithiothreitol (DTT)) having weight three times that of the lungs under ice-cooling. The homogenate was centrifuged at low speed (800×g) for 20 minutes, centrifuged at high speed (10,000×g) for 20 minutes and ultraccntrifugcd (100,000×g) for 60 minutes to give a supernatant. The supernatant was brought to 40% saturation by adding a saturated aqueous ammonium sulfate solution (pH 7.0-7.2, containing 1 mM DTT) dropwise under ice-cooling and centrifuged at high speed (10,000×g) for 20 minutes. The resulting supernatant was brought to 70% saturation by adding a saturated aqueous ammonium sulfate solution (pH 7.0-7.2, containing 1 mM DTT) dropwise and centrifuged at high speed (10,000×g) for 20 minutes. The obtained pellet was dissolved in 2 ml of Tris-acetic acid buffer (20 mM, pH 7.8, containing 1 mM DTT) and dialyzed in 2 liters of the solution to give the enzyme preparation.
LTA4 used, which is the substrate, was prepared by hydrolyzing LTA4 methyl ester and dissolved in ethanol.
In order to examine effects of the present compounds on the enzyme preparation, reactions were performed under the following condition using mixed solutions consisting of the composition shown in Table 1. […]
HEPES buffer 50 mM, pH 7.8
Enzyme preparation 0.4-0.6 mg protein
The above-mentioned solution (50 μl) was incubated at 37° C. for one minute. To the reaction mixture was added 100 μl of a mixed liquid of acetonitrile-ethanol-acetic acid (150:50:3, volume ratio) under ice-cooling. The mixture was allowed to stand at -20° C. for 30 minutes and centrifuged at high speed (10,000×g) for five minutes to give a supernatant. An amount of LTB4 produced in the supernatant was measured by high-speed liquid chromatography.
The degree of the inhibitory effect of each test compound on LTA4 hydrolase is expressed by the inhibition rate calculated by the following equation. [formula] Results

[2] = system: LTA4 hydrolase; settings: JP-A 2-134375; J. Med. Chem., 37, 3197-3199 (1994); cited from earlier work
[3] = system: arthritis in a collagen-induced arthritis model; settings: J. Med. Chem., 37, 3197-3199 (1994); cited from earlier work

Compound	IC50 [1]	LTA4 hydrolase inhibitory activity (reported, in words) [2]	inhibition of sideration of arthritis (in words) [3]
CCC(CS)C(=O)N[C@@H](CSCc1ccc(N(C)C)cc1)C(=O)O (mixture of isomers) [Compound No. 3-22, (2R)-3-[4-(N,N-Dimethylamino)benzylthio]-2-[(2RS)-2-ethyl-3-mercaptopropionylamino]propionic acid]	400 nM	–	–
CCCC(CS)C(=O)N[C@@H](CSCc1ccc(N(C)C)cc1)C(=O)O (mixture of isomers) [Compound No. 3-23, (2R)-3-[4-(N,N-Dimethylamino)benzylthio]-2-[(2RS)-3-mercapto-2-propylpropionylamino]propionic acid]	290 nM	–	–
CC(C)C(CS)C(=O)N[C@@H](CSCc1ccc(N(C)C)cc1)C(=O)O (mixture of isomers) [Compound No. 3-24, (2R)-3-[4-(N,N-Dimethylamino)benzylthio]-2-[(2RS)-2-isopropyl-3-mercaptopropionylamino]propionic acid]	1100 nM	–	–
CN(C)c1ccc(CSC[C@H](NC(=O)C(CS)CCc2ccccc2)C(=O)O)cc1 (single isomer, unassigned) [Compound No. 3-26, (2R)-3-[4-(N,N-Dimethylamino)benzylthio]-2-[(2S or 2R)-2-phenetyl-3-mercaptopropionylamino]propionic acid]	500 nM	–	–
CN(C)c1ccc(CSC[C@H](NC(=O)C(CS)CCc2ccccc2)C(=O)O)cc1 (single isomer, unassigned) [Compound No. 3-27, (2R)-3-[4-(N,N-Dimethylamino)benzylthio]-2-[(2R or 2S)-2-phenetyl-3-mercaptopropionylamino]propionic acid]	3800 nM	–	–
O=C(O)c1cccc(C2CO2)c1 (stereo not shown) [3-Oxiranyl benzoic acid]	–	LTA4 hydrolase inhibitory activity	–
O=C(O)C1(c2ccc3c(c2)OC[C@H](Cc2ccc(-c4ccccc4)cc2)[C@H]3O)CCCC1 [(+)-1-(3S, 4R)-[3-(4-phenylbenzyl)-4-hydroxychroman-7-yl]cyclopentanecarboxylic acid]	–	LTA4 hydrolase inhibitory activity	inhibit sideration of arthritis
C[C@H](CS)C(=O)N[C@@H](CSCc1ccc(N(C)C)cc1)C(=O)O [Compound No. 3-1, (2R)-3-[4-(N,N-Dimethylamino)benzylthio]-2-[(2S)-3-mercapto-2-methylpropionylamino]propionic acid]	240 nM	–	–
CCN(CC)c1ccc(CSC[C@H](NC(=O)[C@H](C)CS)C(=O)O)cc1 [Compound No. 3-9, (2R)-3-[4-(N,N-Diethylamino)benzylthio]-2-[(2S)-3-mercapto-2-methylpropionyl]aminopropionic acid]	900 nM	–	–
C[C@H](S)C(=O)N[C@@H](CSCc1ccc(N(C)C)cc1)C(=O)O [Compound No. 3-19, (2R)-3-[4-(N,N-Dimethylamino)benzylthio]-2-[(2S)-2-mercaptopropionylamino]propionic acid]	5600 nM	–	–
C[C@@H](CS)C(=O)N[C@@H](CSCc1ccc(N(C)C)cc1)C(=O)O [Compound No. 3-21, (2R)-3-[4-(N,N-Dimethylamino)benzylthio]-2-[(2R)-3-mercapto-2-methylpropionylamino]propionic acid]	1500 nM	–	–
CCOC(=O)[C@H](CSCc1ccc(N(C)C)cc1)NC(=O)[C@H](C)CS [Compound No. 8-1, Ethyl (2R)-3-[4-(N,N-dimethylamino)benzylthio]-2-[(2S)-3-mercapto-2-methylpropionylamino]propionate]	590 nM	–	–
